Data on 25 molecules can be found in US8580122B2, “Hybrid chemical/mechanical method and apparatus for inactivating and removing pharmaceuticals and other contaminants from water” (priority 2004, dated 2013).

Where a name gives a salt, the structure may show the parent alone. Read-outs that look alike come from different tables or passages of the source.

The conditions of data set [1]: result in words; cited from earlier work.
The conditions of data set [2]: wastewater treatment plant; cited from earlier work.
For data set [3] the following is noted: epilimnion of Lake Greifensee; cited from earlier work.
The conditions of data set [4]: cited from earlier work.
For data set [5] the following is noted: result in words; cited from earlier work. The source holds these as a separate data set.
The conditions of data set [6]: result in words; cited from earlier work. This is another data set of the same source.
For data set [7] the following is noted: eight German STPs; cited from earlier work.
For data set [8] the following is noted: result in words; cited from earlier work. This is another data set of the same source.
The conditions of data set [9]: cited from earlier work; for biodegradability in the CBT: result in words; for biodegradation in the CBT, test prolonged: prolonged to 40 days.
The conditions of data set [10]: computer model, binding to sludge solids; cited from earlier work.
The conditions of data set [11]: cited from earlier work. The source holds these as a separate data set.
Another data set deals with fecal coliforms. As to the kind of experiment: sulfur dioxide treatment of effluent, Saticoy-Jose Florez Wastewater Treatment Plant. Conditions: effluent undergoing sulfur dioxide treatment. The text has this: The destruction of odor causing microbes feeding on the water stops further CO2 production, and may be employed where the wastewater treatment plant is mandated to reduce these carbon dioxide emissions. Also, if there is significant carbon in the suspended solids, most perchlorates and chlorates will have been reduced on contact with the solids. The separation and disposal of the solids also removes most of the adsorbed microbes. Under this wastewater treatment scenario, the sulfur dioxide reduction treatment is more for acidification, inactivating of certain chemicals such as Chromium VI susceptible to acid reduction, adding sulfurous and sulfate ions, and chemical dewatering of the solids. […] This disinfection level is suitable in California for gray water land application. Consequently, the sulfur dioxide was used primarily to acid reduce pharmaceuticals, and condition the solids and separated wastewater for land application.

For data set [12] the following is noted: result in words; cited from earlier work. This is another data set of the same source.
For data set [13] the following is noted: cited from earlier work; for biodegradability in the ZWT: result in words.
For data set [14] the following is noted: laboratory-scale activated sludge plants; cited from earlier work.
Setting [15] is: pilot sewage plant and anoxic biofilm reactor.

For the molecule `Oc1ccc(Cl)c2cccnc12` [cloxiquin], the light sensitivity result in [1] was “light sensitive”. With `Oc1cc(Cl)ccc1Oc1ccc(Cl)cc1Cl` [triclosan, 2,4,4′-trichloro2′-hydroxyphenyl ether], the “fate: biological degradation” value in [2] was 79%. Further, in data set [3], the “overall elimination rate due to photochemical degradation” value is 0.03 day⁻¹. Regarding `CC(C)Cc1ccc(C(C)C(=O)O)cc1` (stereo not shown) [ibuprofen], the results for the biological degradation result in data set [4] (oxic biofilm reactor) and in data set [4] (setting [15]) were “high degree of degradation” and “partially degraded”, respectively.

As for `CC(=O)Nc1ccc(O)cc1` [paracetamol], in data set [5], the biodegradability result is listed as “biodegradable”. Turning to `COCC(=O)Nc1c(I)c(C(=O)NCC(O)CO)c(I)c(C(=O)N(C)CC(O)CO)c1I` (stereo not shown) [iopromide], in data set [6], the photodegradation entry is given as “amenable to photodegradation”. Besides, in data set [7], the “degradation or absorption during sewage treatment” value is “not significantly degraded or absorbed”. For the molecule `C[C@H](O)C(=O)Nc1c(I)c(C(=O)NC(CO)CO)c(I)c(C(=O)NC(CO)CO)c1I` [iopamidol], the “degradation or absorption during sewage treatment” value in data set [7] was “not significantly degraded or absorbed”.

On to `O=C(O)c1cn(C2CC2)c2cc(N3CCNCC3)c(F)cc2c1=O` [ciprofloxacin], for which the biodegradability entry in [8] is listed as “none of the compounds were biodegraded”. Moreover, in data set [9], the “biodegradability in the CBT” value is reported as “None of the test compounds met the criteria for ready biodegradability”. In the case of `Cc1cccc(Nc2ccccc2C(=O)O)c1C` [mefenamic acid], in [10], the predicted sorption potential entry is listed as “high capacity to bind to solids”. Take `C[C@@H](O)[C@H]1C(=O)N2C(C(=O)O)=C(S[C@@H]3CN[C@H](C(=O)N(C)C)C3)[C@H](C)[C@H]12` [meropenem]: the “biodegradability in the CBT” value in [9] is “None of the test compounds met the criteria for ready biodegradability”. Turning to `Cc1cccc(N(C)C(=S)Oc2ccc3ccccc3c2)c1` [tolnaftate], the light sensitivity entry in [1] is listed as “light sensitive”. `O=C(O)Cc1ccccc1Nc1c(Cl)cccc1Cl` [diclofenac]: the biological degradation entry in data set [4] (setting [15]) is listed as “partially degraded”. The degraded entry in [11] (entering a Swiss lake) is “up to 90%”. Further, the “reduction on incubation in the dark” value in data set [11] (fortified lake water) was “no reduction”. Regarding `O=S=O` [sulfur dioxide], the “fecal coliforms in treated effluent” value in the data set on fecal coliforms is recorded as less than 2 MPN.

`CN(C/C=C/c1ccccc1)Cc1cccc2ccccc12` [naftifine]: the light sensitivity entry in data set [1] is recorded as “light sensitive”. `CN/C(=N/CCSCc1nc[nH]c1C)NC#N` [cimetidine]: the direct photolysis entry in data set [12] was “resistant to direct photolysis”. Consider `O=C(O)c1ccccc1O` [salicylic acid], for which the biodegradability entry in data set [5] was “biodegradable”. For the molecule `Nc1ccn([C@@H]2O[C@H](CO)[C@@H](O)C2(F)F)c(=O)n1` [gemcitabine], the “biodegradation in the CBT, test prolonged” value in data set [9] was 45%. The “degree of biodegradation, test prolonged” value in data set [13] (prolonged to 40 days, test read from the sentence before) was 80%. Regarding `O=P1(N(CCCl)CCCl)NCCCO1` (stereo not shown) [cyclophosphamide], the “biodegradability in the CBT” value in data set [9] is “poor biodegradability”. In addition, in data set [13], the “biodegradability in the ZWT” value was “poor biodegradability”. Besides, the biodegradability entry in data set [14] is given as “poor biodegradability”.

`CC(=O)Nc1c(I)c(NC(C)=O)c(I)c(C(=O)O)c1I` [diatrizoate]: in [7], the “degradation or absorption during sewage treatment” value was “not significantly degraded or absorbed”. Turning to `O=c1[nH]cc(F)c(=O)[nH]1` [5-fluorouracil], the “biodegradability in the CBT” value in data set [9] is “not biodegradable”. Moreover, the “biodegradability in the ZWT” value in data set [13] is “not biodegradable”. As for `S=C1SCN(Cc2ccccc2)CN1Cc1ccccc1` [sulbentine], the light sensitivity entry in data set [1] is recorded as “light sensitive”.

With `CC1(C)S[C@@H]2[C@H](NC(=O)Cc3ccccc3)C(=O)N2[C@H]1C(=O)O` [penicillin G], in [9], the “biodegradation in the CBT, test prolonged” value is 35% and the “biodegradability in the CBT” value was “None of the test compounds met the criteria for ready biodegradability”. Moreover, the “biodegradation in the CBT (removed / biodegraded)” value in [9] (regular test period, 28 days printed for penicillin G) was “approximately 27%”. With `CN(CC(O)CO)C(=O)c1c(I)c(N)c(I)c(C(=O)NCC(O)CO)c1I` (stereo not shown) [5-amino-N,N′bis(2,3-dihydroxypropyl)-2,4,6-triiodo-N-methyliso-phthalamide], the photodegradation result in data set [6] was “faster rate of photolysis than the parent compound”.

Consider `CN(C(=O)CO)c1c(I)c(C(=O)NCC(O)CO)c(I)c(C(=O)NCC(O)CO)c1I` (stereo not shown) [iomeprol], for which the “degradation or absorption during sewage treatment” value in [7] is given as “not significantly degraded or absorbed”. For the molecule `CN(C)CCn1nnnc1SCC1=C(C(=O)O)N2C(=O)[C@@H](NC(=O)Cc3csc(N)n3)[C@H]2SC1` [cefotiam], the “biodegradability in the CBT” value in [9] is “None of the test compounds met the criteria for ready biodegradability”.

For `C=C[C@H]1C[N@@]2CC[C@H]1C[C@H]2[C@H](O)c1ccnc2ccc(OC)cc12` [quinine sulfate], the predicted sorption potential result in data set [10] is listed as “high capacity to bind to solids”.
